This passage reports IC50 results from US8063099B2, “Trans-3-aza-bicyclo[3.1.0]hexane derivatives” (Actelion Pharmaceuticals Ltd., priority 2007, dated 2011).

Like-named read-outs stand apart in the source and are kept apart here. A value given as a limit tells only on which side of the number the result lay.

In general, IC50 refers to the concentration that inhibits the measured activity by half.

The target of one test is T1, human orexin-2 receptor (Homo sapiens, UniProt O43614).
T1 construct: expressed in transfected cells; host or cells: Chinese hamster ovary (CHO) cells, G418 selection
T1 sequence (O43614 1-444): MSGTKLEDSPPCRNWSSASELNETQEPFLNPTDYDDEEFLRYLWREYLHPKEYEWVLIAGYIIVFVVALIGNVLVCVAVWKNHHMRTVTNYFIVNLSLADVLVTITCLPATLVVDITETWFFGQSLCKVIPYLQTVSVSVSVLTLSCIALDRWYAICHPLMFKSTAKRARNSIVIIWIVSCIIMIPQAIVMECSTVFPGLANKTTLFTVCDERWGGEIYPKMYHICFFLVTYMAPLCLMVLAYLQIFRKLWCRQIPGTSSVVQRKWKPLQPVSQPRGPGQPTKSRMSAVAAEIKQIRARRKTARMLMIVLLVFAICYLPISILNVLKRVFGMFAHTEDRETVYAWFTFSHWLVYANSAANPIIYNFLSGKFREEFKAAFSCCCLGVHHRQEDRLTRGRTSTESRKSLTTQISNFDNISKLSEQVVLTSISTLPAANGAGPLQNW
The experiment in a line: Intracellular calcium measurements (FLIPR), orexin receptor antagonistic activity. The format is cell-based. The conditions noted are these: CHO cells expressing human orexin-2 receptor, 3 nM orexin-A, read-out: OX2 IC50. The protocol: (§1) The orexin receptor antagonistic activity of the compounds of formula (I) is determined in accordance with one of the following experimental methods.
(§2) Intracellular Calcium Measurements:
(§3) Chinese hamster ovary (CHO) cells expressing the human orexin-1 receptor and the human orexin-2 receptor, respectively, are grown in culture medium (Ham F-12 with L-Glutamine) containing 300 μg/ml G418, 100 U/ml penicillin, 100 μg/ml streptomycin and 10% heat inactivated fetal calf serum (FCS). The cells are seeded at 20'000 cells/well into 384-well black clear bottom sterile plates (Greiner). The seeded plates are incubated overnight at 37° C. in 5% CO2.
(§4) Human orexin-A as an agonist is prepared as 1 mM stock solution in MeOH:water (1:1), diluted in HBSS containing 0.1% bovine serum albumin (BSA), NaHCO3:0.375 g/l and 20 mM HEPES for use in the assay at a final concentration of 3 nM.
(§5) Antagonists are prepared as 10 mM stock solution in DMSO, then diluted in 384-well plates, first in DMSO, then in HBSS containing 0.1% bovine serum albumin (BSA), NaHCO3: 0.375 g/l and 20 mM HEPES.
(§6) On the day of the assay, 50 μl of staining buffer (HBSS containing 1% FCS, 20 mM HEPES, NaHCO3: 0.375 g/l, 5 mM probenecid (Sigma) and 3 μM of the fluorescent calcium indicator fluo-4 AM (1 mM stock solution in DMSO, containing 10% pluronic) is added to each well.
(§7) The 384-well cell-plates are incubated for 50 min at 37° C. in 5% CO2 followed by equilibration at RT for 30-120 min before measurement.
(§8) Within the Fluorescent Imaging Plate Reader (FLIPR2 or FLIPR Tetra, Molecular Devices), antagonists are added to the plate in a volume of 10 μl/well, incubated for 10 min and finally 10 μl/well of agonist is added. Fluorescence is measured for each well at 1 second intervals, and the height of each fluorescence peak is compared to the height of the fluorescence peak induced by 3 nM orexin-A with vehicle in place of antagonist. For each antagonist, the IC50 value (the concentration of compound needed to inhibit 50% of the agonistic response) is determined. With the FLIPR Tetra, non-optimized and optimized conditions were used. Optimized conditions were achieved by adjustment of pipetting speed and cell splitting regime. The calculated IC50 values of the compounds may fluctuate depending on the daily cellular assay performance. Fluctuations of this kind are known to those skilled in the art.
For orientation: Calcium flux is commonly read through the fluorescence of an indicator in the cells.

The next test has as its target T2, human orexin-1 receptor (Homo sapiens, UniProt O43613).
T2 construct: expressed in transfected cells; host or cells: Chinese hamster ovary (CHO) cells, G418 selection
T2 sequence (O43613 1-425): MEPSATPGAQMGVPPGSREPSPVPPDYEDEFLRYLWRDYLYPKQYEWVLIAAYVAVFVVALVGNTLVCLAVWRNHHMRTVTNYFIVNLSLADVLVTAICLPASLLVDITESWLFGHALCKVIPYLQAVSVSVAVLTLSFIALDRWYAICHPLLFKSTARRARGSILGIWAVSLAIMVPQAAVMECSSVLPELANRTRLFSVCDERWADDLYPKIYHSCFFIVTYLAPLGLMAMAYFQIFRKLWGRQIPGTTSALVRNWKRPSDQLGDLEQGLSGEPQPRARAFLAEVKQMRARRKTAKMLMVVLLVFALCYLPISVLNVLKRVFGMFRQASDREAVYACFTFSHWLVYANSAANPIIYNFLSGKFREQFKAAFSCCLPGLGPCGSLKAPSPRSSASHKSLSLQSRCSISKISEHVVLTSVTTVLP
The description is as above. The conditions noted are these: CHO cells expressing human orexin-1 receptor, 3 nM orexin-A, read-out: OX1 IC50. The format is cell-based. As for the experimental part: as §1, §2, §3, §4, §5, §6, §7, §8

The mark [1] stands for this setting: FLIPR Tetra, non-optimized conditions.
The mark [2] stands for this setting: FLIPR Tetra, optimized conditions.

In the case of `Cc1nc(C(=O)N2C[C@@H]3C[C@@H]3[C@H]2CNC(=O)c2cccc(Br)c2)c(-c2cccc(Cl)c2)s1` [Example 74, 3-Bromo-N-{(1S,2S,5R)-3-[5-(3-chloro-phenyl)-2-methyl-thiazole-4-carbonyl]-3-aza-bicyclo[3.1.0]hex-2-ylmethyl}-benzamide], the results for the 50% inhibitory concentration (IC50) on human orexin-2 receptor (FLIPR2) and on human orexin-1 receptor (FLIPR2) were 48 nM and 84 nM, respectively.
With `CCn1nc(C)cc1C(=O)NC[C@@H]1[C@H]2C[C@H]2CN1C(=O)c1nc(C)sc1-c1cccc(Cl)c1` [Example 80, 2-Ethyl-5-methyl-2H-pyrazole-3-carboxylic Acid{(1S,2S,5R)-3-[5-(3-chloro-phenyl)-2-methyl-thiazole-4-carbonyl]-3-aza-bicyclo[3.1.0]hex-2-ylmethyl}-amide], the half-inhibitory concentration (IC50) at human orexin-2 receptor (FLIPR2) stood at 10 nM; at human orexin-1 receptor (FLIPR2), 29 nM.
For `Nc1nc(C(=O)N2C[C@@H]3C[C@@H]3[C@H]2CNC(=O)c2nccc3ccccc23)c(-c2cccc(F)c2)s1` [Example 112, Isoquinoline-1-carboxylic Acid{(1S,2S,5R)-3-[2-amino-5-(3-fluoro-phenyl)-thiazole-4-carbonyl]-3-aza-bicyclo[3.1.0]hex-2-ylmethyl}-amide], the IC50 on human orexin-2 receptor (FLIPR2) worked out at 12 nM; on human orexin-1 receptor (FLIPR2), 115 nM.
The corresponding values for `Cn1cc(C(=O)NC[C@@H]2[C@H]3C[C@H]3CN2C(=O)c2nc(N)sc2-c2cccc(F)c2)c2ccccc21` [Example 115, 1-Methyl-1H-indole-3-carboxylic Acid{(1S,2S,5R)-3-[2-amino-5-(3-fluoro-phenyl)-thiazole-4-carbonyl]-3-aza-bicyclo[3.1.0]hex-2-ylmethyl}-amide] are 48 nM and 178 nM.
In the same order, the values of `Cn1nc(C(=O)NC[C@@H]2[C@H]3C[C@H]3CN2C(=O)c2nc(N)sc2-c2cccc(F)c2)c2ccccc21` [Example 117, 1-Methyl-1H-indazole-3-carboxylic Acid{(1S,2S,5R)-3-[2-amino-5-(3-fluoro-phenyl)-thiazole-4-carbonyl]-3-aza-bicyclo[3.1.0]hex-2-ylmethyl}-amide] are 8 nM and 80 nM.
With `Nc1nc(C(=O)N2C[C@@H]3C[C@@H]3[C@H]2CNC(=O)c2cnc3ccccn23)c(-c2cccc(F)c2)s1` [Example 118, Imidazo[1,2-a]pyridine-3-carboxylic Acid{(1S,2S,5R)-3-[2-amino-5-(3-fluoro-phenyl)-thiazole-4-carbonyl]-3-aza-bicyclo[3.1.0]hex-2-ylmethyl}-amide], the IC50 on human orexin-2 receptor (FLIPR2) was found to be 41 nM; at human orexin-1 receptor (FLIPR2), 225 nM.
Regarding `Cc1c(C(=O)NC[C@@H]2[C@H]3C[C@H]3CN2C(=O)c2nc(N)sc2-c2cccc(F)c2)sc2nccn12` [Example 124, 3-Methyl-imidazo[2,1-b]thiazole-2-carboxylic Acid{(1S,2S,5R)-3-[2-amino-5-(3-fluoro-phenyl)-thiazole-4-carbonyl]-3-aza-bicyclo[3.1.0]hex-2-ylmethyl}-amide], the IC50 turned out to be 12 nM on human orexin-2 receptor (FLIPR2) and 7030 nM at human orexin-1 receptor (FLIPR2).
In the same order, the values of `Cc1cc(C)cc(C(=O)NC[C@@H]2[C@H]3C[C@H]3CN2C(=O)c2nc(C)sc2-c2cccc(C)c2)c1` [Example 147, 3,5-Dimethyl-N-[(1S,2S,5R)-3-(2-methyl-5-m-tolyl-thiazole-4-carbonyl)-3-aza-bicyclo[3.1.0]hex-2-ylmethyl]-benzamide] are 26 nM and 324 nM.
For `Cc1cccc(-c2sc(C)nc2C(=O)N2C[C@@H]3C[C@@H]3[C@H]2CNC(=O)c2cc(Br)ccc2Cl)c1` [Example 148, 5-Bromo-2-chloro-N-[(1S,2S,5R)-3-(2-methyl-5-m-tolyl-thiazole-4-carbonyl)-3-aza-bicyclo[3.1.0]hex-2-ylmethyl]-benzamide], the IC50 stood at 102 nM at human orexin-2 receptor (FLIPR2) and 1080 nM on human orexin-1 receptor (FLIPR2).
Turning to `Cc1cccc(-c2sc(C)nc2C(=O)N2C[C@@H]3C[C@@H]3[C@H]2CNC(=O)c2cccc3c2OCC(=O)N3)c1` [Example 169, 3-Oxo-3,4-dihydro-2H-benzo[1,4]oxazine-8-carboxylic Acid[(1S,2S,5R)-3-(2-methyl-5-m-tolyl-thiazole-4-carbonyl)-3-aza-bicyclo[3.1.0]hex-2-ylmethyl]-amide], the results for the IC50 on human orexin-2 receptor (FLIPR2) and on human orexin-1 receptor (FLIPR2) were 61 nM and above 10000 nM, respectively.
In the same order, the values of `Cc1cccc(-c2sc(C)nc2C(=O)N2C[C@@H]3C[C@@H]3[C@H]2CNC(=O)c2cccc3c2N(C)CCO3)c1` [Example 177, 4-Methyl-3,4-dihydro-2H-benzo[1,4]oxazine-5-carboxylic Acid[(1S,2S,5R)-3-(2-methyl-5-m-tolyl-thiazole-4-carbonyl)-3-aza-bicyclo[3.1.0]hex-2-ylmethyl]-amide] are 88 nM and 691 nM.
Regarding `N#Cc1ccc(-c2sc(C3CC3)nc2C(=O)N2C[C@@H]3C[C@@H]3[C@H]2CNC(=O)c2cccc(Cl)c2)cc1` [Example 186, 3-Chloro-N-{(1S,2S,5R)-3-[5-(4-cyano-phenyl)-2-cyclopropyl-thiazole-4-carbonyl]-3-aza-bicyclo[3.1.0]hex-2-ylmethyl}-benzamide], the figures for the IC50 on human orexin-2 receptor (setting [1]) and at human orexin-1 receptor (setting [1]) were 296 nM and 3260 nM, respectively.
As to `Cc1nc(C(=O)N2C[C@@H]3C[C@@H]3[C@H]2CNC(=O)c2cccc3c2CCO3)c(-c2cccc(C(F)(F)F)c2)s1` [Example 201, 2,3-Dihydro-benzofuran-4-carboxylic acid {(1S,2S,5R)-3-[2-methyl-5-(3-trifluoromethyl-phenyl)-thiazole-4-carbonyl]-3-aza-bicyclo[3.1.0]hex-2-ylmethyl}-amide], the half-maximal inhibitory concentration (IC50) at human orexin-2 receptor (setting [1]) turned out to be 349 nM; on human orexin-1 receptor (setting [1]), 673 nM.
Regarding `CN(C)c1nc(C(=O)N2C[C@@H]3C[C@@H]3[C@H]2CNC(=O)c2scc3c2OCCO3)c(-c2cccc(F)c2)s1` [Example 220, 2,3-Dihydro-thieno[3,4-b][1,4]dioxine-5-carboxylic acid {(1S,2S,5R)-3-[2-dimethylamino-5-(3-fluoro-phenyl)-thiazole-4-carbonyl]-3-aza-bicyclo[3.1.0]hex-2-ylmethyl}-amide], the 50% inhibitory concentration (IC50) was 48 nM on human orexin-2 receptor (setting [1]) and 115 nM at human orexin-1 receptor (setting [1]).
`Cc1ccc(-c2ccsc2C(=O)N2C[C@@H]3C[C@@H]3[C@H]2CNC(=O)c2c(C)nc3sccn23)cc1` [Example 222, 6-Methyl-imidazo[2,1-b]thiazole-5-carboxylic acid [(1S,2S,5R)-3-(3-p-tolyl-thiophene-2-carbonyl)-3-aza-bicyclo[3.1.0]hex-2-ylmethyl]-amide]: the IC50 on human orexin-2 receptor (setting [2]) was 79 nM; at human orexin-1 receptor (setting [2]) it was 96 nM.
